Test results from the NIST ThermoML archive (doi:10.1021/acs.jced.6b00269).
Numbers after ± are expanded uncertainties.

Details: for viscosity / mass density: 101.33 kPa, Liquid; for viscosity: Cone and plate viscometry; for mass density: Vibrating tube method; for Glass transition temperature: DSC

| SMILES | viscosity (278.15 K) [mPa·s] | viscosity (283.15 K) [mPa·s] | mass density (283.15 K) [kg/m3] | viscosity (288.15 K) [mPa·s] | mass density (288.15 K) [kg/m3] | viscosity (293.15 K) [mPa·s] | mass density (293.15 K) [kg/m3] | mass density (295.15 K) [kg/m3] | viscosity (298.15 K) [mPa·s] | mass density (298.15 K) [kg/m3] | viscosity (303.15 K) [mPa·s] | mass density (303.15 K) [kg/m3] | mass density (308.15 K) [kg/m3] | mass density (313.15 K) [kg/m3] | mass density (318.15 K) [kg/m3] | mass density (323.15 K) [kg/m3] | mass density (328.15 K) [kg/m3] | mass density (333.15 K) [kg/m3] | mass density (338.15 K) [kg/m3] | mass density (343.15 K) [kg/m3] | further results |
| --- | --- | --- | --- | --- | --- | --- | --- | --- | --- | --- | --- | --- | --- | --- | --- | --- | --- | --- | --- | --- | --- |
| CCCCCC[n+]1ccn(C)c1.O=S(=O)([N-]S(=O)(=O)C(F)(F)F)C(F)(F)F | 203 ± 14 | 150 ± 10 | 1386.6 ± 10 | 113 ± 8 | 1382.1 ± 10 | 87 ± 6 | 1377.5 ± 10 | 1375.7 ± 10 | 68 ± 5 | 1372.9 ± 10 | 55 ± 4 | 1368.4 ± 10 | 1363.8 ± 10 | 1359.3 ± 10 | 1354.8 ± 10 | 1350.3 ± 10 | 1345.8 ± 9.9 | 1341.3 ± 9.8 | 1336.8 ± 9.8 | 1332.4 ± 9.7 | mass density (348.15 K): 1327.9 ± 9.6 kg/m3; mass density (353.15 K): 1323.5 ± 9.6 kg/m3 |
| CCCCCCn1cc[n+](C)c1.O=[N+]([O-])c1cn[n-]c1 [1-hexyl-3-methylimidazolium 4-nitropyrazolide] | 3310 ± 340 | 1810 ± 170 | 1133.6 ± 7 | 1040 ± 92 | 1130 ± 6.9 | 633 ± 52 | 1126.6 ± 6.9 | 1125.3 ± 6.9 | 407 ± 32 | 1123.3 ± 6.8 | 275 ± 20 | 1120 ± 6.8 | 1116.6 ± 6.8 | 1113.4 ± 6.7 | 1110.2 ± 6.7 | 1107 ± 6.6 | 1103.8 ± 6.6 | 1100.6 ± 6.6 | 1097.4 ± 6.5 | 1094.2 ± 6.5 | viscosity (308.15 K): 192 ± 14 mPa·s; viscosity (313.15 K): 139 ± 10 mPa·s; viscosity (318.15 K): 102 ± 7 mPa·s; viscosity (323.15 K): 79 ± 5 mPa·s; viscosity (328.15 K): 63 ± 4 mPa·s; viscosity (333.15 K): 51 ± 3 mPa·s; mass density (348.15 K): 1091.1 ± 6.5 kg/m3; mass density (353.15 K): 1087.9 ± 6.4 kg/m3; Normal melting temperature (Crystal, DTA): 33 ± 2 °C; Glass transition temperature: -56 ± 2 °C |
| CCOCc1n(CC)cc[n+]1C.O=S(=O)([N-]S(=O)(=O)C(F)(F)F)C(F)(F)F | 207 ± 15 | 149 ± 10 |  | 111 ± 8 |  | 85 ± 6 |  |  | 66 ± 4 |  | 53 ± 4 |  |  |  |  |  |  |  |  |  | Glass transition temperature: -78 ± 2 °C |
